From article PMC10821019, “F16 Hybrids Derived from Steviol or Isosteviol Are Accumulated in the Mitochondria of Tumor Cells and Overcome Drug Resistance” (Molecules, 2024) come the findings set out here.

In data set [1] the test system is HT29 (colorectal carcinoma). The experiment in a line: SRB cytotoxicity assay, HT29. The settings on record: 72 h treatment, mean n = 3, SD 5-10%. Type of data set: cell-based, human. The text has this:
(§1) All compounds were screened for their cytotoxic activity and tumor cell selectivity using our standard model, previously described, comprising a selection of human tumor cell lines representing different solid tumor entities and non-malignant human fibroblasts (CCD18Co) including the cell line pair A2780/A2780cis, a well-known model of acquired drug resistance.
(§2) Reagents were bought from commercial suppliers and used without further purification. The solvents were dried according to the usual procedures. TLC was performed on silica gel (Macherey-Nagel, detection with UV absorption; Macherey-Nagel, Düren, Germany). […] Numbering in the NMR spectra: 1–20 (diterpene core), 21–24 for O-(CH2)n-N fragment followed by the pyridinium ring, the ethenyl moiety and the indole moiety. […] IR spectra were recorded on a Perkin-Elmer Spectrum Two (UATR Two Unit, Perkin-Elmer GmbH, Rodgau, Germany). […] Both media were supplemented with 10% fetal bovine serum (Biowest, Nuaillé, France) and 1% penicillin-streptomycin (Sigma-Aldrich).
(§3) Cytotoxic activities of compounds were analyzed using the SRB cytotoxicity assay. Cells were seeded in 96-well plates and after 24 h were treated with serial dilutions of compounds for 72 h. All subsequent steps were performed according to the previously described SRB assay protocol. Dose–response curves and calculation of IC50 values, including standard deviations, were carried out using GraphPad Prism8.

For data set [2], the system named is A2780cis (resistant derivative of A2780). Put plainly: SRB cytotoxicity assay, A2780cis. Type of data set: cell-based, human. The settings on record: for IC50: SRB assay, 72 h treatment, mean n = 3, SD 5-10%; for resistance index (RI): quotient IC50 values A2780cis/A2780.
From the text: as §1, §2, §3

For data set [3], the system named is MCF7 (breast carcinoma). The experiment in a line: SRB cytotoxicity assay, MCF7. It counts as cell-based, human. The settings on record: 72 h treatment, mean n = 3, SD 5-10%.
From the text: as §1, §2, §3
A general note: The SRB assay estimates cell density from bound dye.

Data set [4] concerns A549 (lung carcinoma). The experiment in a line: SRB cytotoxicity assay, A549. It counts as cell-based, human. Particulars: for selectivity index 2 (SI 2): CCD18Co/A549; for IC50: SRB assay, 72 h treatment, mean n = 3, SD 5-10%.
From the text: as §1, §2, §3

In data set [5] the test system is A2780 (ovarian carcinoma). The experiment in a line: SRB cytotoxicity assay, A2780. It counts as cell-based, human. Particulars: for selectivity index 1 (SI 1): CCD18Co/A2780; for IC50: SRB assay, 72 h treatment, mean n = 3, SD 5-10%.
From the text: as §1, §2, §3

Data set [6] deals with CCD18Co (non-malignant human fibroblasts). The experiment in a line: SRB cytotoxicity assay, CCD18Co. It counts as cell-based. Particulars: 72 h treatment, mean n = 3, SD 5-10%.
From the text: as §1, §2, §3

As a reminder, the IC50 is the midpoint of a concentration-inhibition curve. Higher therefore signals weaker potency. As for `C=C1C[C@@]23CC[C@H]4[C@@](C)(CCC[C@@]4(C)C(=O)OCCCC[n+]4ccccc4/C=C/c4c[nH]c5ccccc45)[C@@H]2CC[C@]1(O)C3.[Br-]` [Compound 28], the IC50 in data set [1] is 1.78 µM; in data set [2], 1.68 µM; in data set [3], 1.18 µM; in data set [4], 7.51 µM; in data set [5] it was 0.5 µM; in data set [6], 10.9 µM. In addition, the “resistance index (RI)” value in data set [2] was 3.33. Further, the “selectivity index 2 (SI 2)” value in data set [4] turned out to be 1.46. Also, the “selectivity index 1 (SI 1)” value in data set [5] is listed as 21.75.
Take `C=C1C[C@@]23CC[C@H]4[C@@](C)(CCC[C@@]4(C)C(=O)OCCCC[n+]4ccc(/C=C/c5c[nH]c6ccccc56)cc4)[C@@H]2CC[C@]1(O)C3.[Br-]` [Compound 24]: the IC50 in data set [1] was determined as 0.88 µM; in data set [2] it was 0.28 µM; in data set [3], 0.58 µM; in data set [4], 2.76 µM; in data set [5], 0.24 µM; in data set [6] it was 13.1 µM. For the same compound, in data set [2] (A2780cis vs A2780), the “drug resistance in the A2780/A2780cis model, in words” value was “able to reduce or even overcome drug resistance”. In data set [2], the “resistance index (RI)” value is recorded as 1.13. For the same compound, the “selectivity index 2 (SI 2)” value in data set [4] is 4.74. In data set [5], the “selectivity index 1 (SI 1)” value is reported as 53.96. For the same compound, in data set [5] (tumor cells vs non-malignant fibroblasts CCD18Co), the “tumor cell selectivity, in words” value is given as “retained selectivity”.
Regarding `C=C1C[C@@]23CC[C@H]4[C@@](C)(CCC[C@@]4(C)C(=O)OCC[n+]4cccc(/C=C/c5c[nH]c6ccccc56)c4)[C@@H]2CC[C@]1(O)C3` [Compound 10, 2-{3-[(E)-2-(1H-Indol-3-yl)ethenyl]-pyridinium-1-yl}-ethyl (4α)-13-Hydroxykaur-16-en-18-oate Bromide], the IC50 in data set [1] amounted to 7.65 µM; in data set [2], 4.2 µM; in data set [3], 3.83 µM; in data set [5] it was 2.8 µM; in data set [6] it was 22.7 µM.
Take `C=C1C[C@@]23CC[C@H]4[C@@](C)(CCC[C@@]4(C)C(=O)OCCCBr)[C@@H]2CC[C@]1(O)C3` [Compound 14, 3-Bromopropyl (4α) -13-hydroxykaur-16-en-18-oate]: the half-inhibitory concentration (IC50) in data set [1] was found to be 29.1 µM; in data set [2] it was 28.4 µM; in data set [3], 28.1 µM; in data set [4], 29 µM; in data set [5], 27.7 µM; in data set [6], 41.7 µM. The “resistance index (RI)” value in data set [2] was found to be 1.03. For the same compound, the “selectivity index 2 (SI 2)” value in data set [4] is listed as 1.44. Further, in data set [5], the “selectivity index 1 (SI 1)” value turned out to be 1.51.
For `CC12CCC3C(CCC4C(C)(C(=O)OCCCC[n+]5cccc(C=Cc6c[nH]c7ccccc67)c5)CCCC34C)(CC1=O)C2.[Br-]` (stereo not drawn) [Compound 27, 4-{3-[(E)-2-(1H-Indol-3-yl)ethenyl]-pyridinium-1-yl}butyl (4α, 8β, 13β) 13-Methyl-16-oxo-17-norkauran-18-oate Bromide], the IC50 was determined as 2.2 µM in data set [1]; 1.27 µM in data set [2]; 1.57 µM in data set [3]; 6.28 µM in data set [4]; 0.76 µM in data set [5]; 10.8 µM in data set [6]. Also, the “resistance index (RI)” value in data set [2] is recorded as 1.67. In data set [4], the “selectivity index 2 (SI 2)” value was 1.72. The “selectivity index 1 (SI 1)” value in data set [5] is given as 14.18.
As for `CC12CCC3C(CCC4C(C)(C(=O)OCCCCBr)CCCC34C)(CC1=O)C2` (stereo not drawn) [Compound 23, 4-Bromobutyl (4α, 8β, 13β) 13-Methyl-16-oxo-17-norkauran-18-oate], the concentration for half-maximal inhibition (IC50) came out at 24.6 µM in data set [1]; 29.1 µM in data set [2]; 18.4 µM in data set [3]; 34.3 µM in data set [4]; 13 µM in data set [5]; 31.3 µM in data set [6]. Moreover, the “resistance index (RI)” value in data set [2] was 2.23. The “selectivity index 2 (SI 2)” value in data set [4] stood at 0.91. Besides, the “selectivity index 1 (SI 1)” value in data set [5] was determined as 2.40.
Consider “4-Bromobutyl (4α) -13-Hydroxykaur-16-en-18-oate Bromide [Compound 22]”, for which the “resistance index (RI)” value in data set [2] is reported as 1.14. The “selectivity index 2 (SI 2)” value in data set [4] is on record as 1.68. The “selectivity index 1 (SI 1)” value in data set [5] is reported as 3.58.
